Data published in patent US8372837B2, “Pyridone and pyridazone analogues as GPR119 modulators” (Bristol-Myers Squibb Company, priority 2008, dated 2013).

Molecular target: T1, hGPR119 (Homo sapiens, UniProt Q8TDV5)
T1 construct: expressed in transfected cells; host or cells: Flp-In T-REx 293 (tetracycline-inducible)
T1 sequence (Q8TDV5 1-335): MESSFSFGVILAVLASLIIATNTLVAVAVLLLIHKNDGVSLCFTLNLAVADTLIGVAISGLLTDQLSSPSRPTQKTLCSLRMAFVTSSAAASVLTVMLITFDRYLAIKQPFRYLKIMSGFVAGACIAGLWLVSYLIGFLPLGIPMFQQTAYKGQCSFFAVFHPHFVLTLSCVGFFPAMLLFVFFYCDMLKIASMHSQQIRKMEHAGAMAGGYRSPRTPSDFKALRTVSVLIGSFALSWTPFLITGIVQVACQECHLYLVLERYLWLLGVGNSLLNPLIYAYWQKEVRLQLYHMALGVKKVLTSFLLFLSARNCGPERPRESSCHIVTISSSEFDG
Assay: Human Tet-inducible cAMP assay
Type: cell-based
Settings: Flp-In T-REx 293 tetracycline inducible cells expressing GPR119; cAMP by HITHUNTER kit; 1 hour incubation
Protocol: The in vitro modulation of recombinant human GPR119 was determined as follows.
Human Tet-Inducible cAMP Assay
Cell lines expressing GPR119 are generated using the Flp-In T-REx 293 tetracycline inducible gene expression system are cultured in culture medium comprising the following components: DMEM#11965, 10% FBS, 2 mM L-glutamine, 200 ug/ml Hygromycin B, and 15 ug/ml blasticidin.
For cAMP assays, cells are plated on 96 well plates (e.g., BD Falcon: REF 353948, black side, clear bottom, TC surface) at a density of about 4.5×10^4 cells per well in growth medium containing 1.0 ug/ml tetracycline (1.0 mg/ml stock). The cells are then incubated for 48 hours at 37° C.
Following the incubation, the growth medium is removed from the wells and the wells rinsed (once) with the assay buffer included in the HITHUNTER® cAMP kit (100 μl/well). Following the wash, 20 μl of assay buffer is added to each well, followed by addition of 10 μl of a 3× concentration compound working solution. The solution is then mixed. The final concentration range of compound is from about 10^−5M to about 10^−11 M. The reagents are then incubated at 37° C. at 5% CO2 for 1 hour.
The manufacturer's protocol may be followed for cAMP determination. The HITHUNTER® cAMP kit protocol is outlined for the HIT-T15 cAMP assays described above.
Compounds of the present invention were tested in the Human Tet-inducible cAMP assay described immediately above and the results shown in Table 1 below were obtained.

Compound | EC50 [nM]
CC(=O)c1cnc(N2CCC(Oc3cnn(-c4ccc(S(C)(=O)=O)cc4)c(=O)c3)CC2)nc1 [Example 11, 5-(1-(5-Acetylpyrimidin-2-yl)piperidin-4-yloxy)-2-(4-(methylsulfonyl)phenyl)pyridazin-3(2H)-one] | 4600
CC(C)(C)OC(=O)N1CCC(Oc2cc(=O)n(-c3ccc(Cl)c(Cl)c3)nc2C(N)=O)CC1 [Example 16, tert-Butyl 4-(3-carbamoyl-1-(3,4-dichlorophenyl)-6-oxo-1,6-dihydropyridazin-4-yloxy)piperidine-1-carboxylate] | 3390
COC(=O)c1nn(-c2ccc(S(C)(=O)=O)cc2)c(=O)cc1OC1CCN(C(=O)OC(C)(C)C)CC1 [Example 18, Methyl 4-(1-(tert-butoxycarbonyl)piperidin-4-yloxy)-1-(4-(methylsulfonyl)phenyl)-6-oxo-1,6-dihydropyridazine-3-carboxylate] | 4010
N#Cc1nn(-c2ccc(Cl)c(Cl)c2)c(=O)cc1OC1CCN(c2ncc(C(F)(F)F)cn2)CC1 [Example 26, 1-(3,4-Dichlorophenyl)-6-oxo-4-(1-(5-(trifluoromethyl)pyrimidin-2-yl)piperidin-4-yloxy)-1,6-dihydropyridazine-3-carbonitrile] | 5
CC(C)(C)OC(=O)N1CCC(Oc2cc(=O)n(-c3ccc(S(C)(=O)=O)cc3)nc2C#N)CC1 [Example 31, tert-Butyl 4-(3-cyano-1-(4-(methylsulfonyl)phenyl)-6-oxo-1,6-dihydropyridazin-4-yloxy)piperidine-1-carboxylate] | 83
CC(C)(C)OC(=O)N1CCC(Oc2cc(=O)n(-c3ccc(C#N)c(F)c3)nc2C#N)CC1 [Example 34, tert-Butyl 4-(3-cyano-1-(4-cyano-3-fluorophenyl)-6-oxo-1,6-dihydropyridazin-4-yloxy)piperidine-1-carboxylate] | 3
CCCc1cnc(N2CCC(Oc3cc(=O)n(-c4ccc(C#N)c(F)c4)nc3C#N)CC2)nc1 [Example 38, 1-(4-Cyano-3-fluorophenyl)-6-oxo-4-(1-(5-propylpyrimidin-2-yl)piperidin-4-yloxy)-1,6-dihydropyridazine-3-carbonitrile] | 8
COC(=O)c1nn(-c2ccc(C#N)c(F)c2)c(=O)cc1OC1CCN(c2ncc(Br)cn2)CC1 [Example 42, Methyl 4-(1-(5-bromopyrimidin-2-yl)piperidin-4-yloxy)-1-(4-cyano-3-fluorophenyl)-6-oxo-1,6-dihydropyridazine-3-carboxylate] | 107
CC(C)(C)OC(=O)N1CCC(Oc2cc(=O)n(-c3ccc(Br)c(F)c3)nc2C#N)CC1 [Example 45, tert-Butyl 4-(1-(4-bromo-3-fluorophenyl)-3-cyano-6-oxo-1,6-dihydropyridazin-4-yloxy)piperidine-1-carboxylate] | 95
